Assay results from patent US20050209147A1, “Peptide inhibitors of RhoA signaling” (The Board of Trustees of the Leland Stanford Junior …, priority 2004, published 2005).

Columns and labels:
[1] = tested on: CCL21-induced LFA-1-dependent lymphocyte adhesion to ICAM-1; assay: In vitro rapid adhesion assay on ICAM-1; format: cell-based, mouse; conditions: 1 μM CCL21; for rapid adhesion induced by CCL21 on high density of ICAM-1: high density of ICAM-1 (˜5000 sites/μm^2); for rapid adhesion induced by CCL21 on low density of ICAM-1: low density of ICAM-1 (−500 sites/μm^2)
Experimental: In vitro rapid adhesion assay on ICAM-1. ICAM-1 was purified from mouse spleens and adhesion assays were performed as previously reported. Briefly, primary naïve lymphocytes (about 70% T-, 30% B-cells) were isolated from peripheral and mesenteric lymph nodes and Peyer's patches from young BALB/c mice (Harlan, Italy). Adhesion assays were performed on eighteen well glass slides coated overnight at 4° C. with purified mouse ICAM-1; site density per square micrometer of immobilized ICAM-1 was calculated as reported.

[2] = tested on: LFA-1 high affinity state; assay: Measurement of LFA-1 high affinity state (soluble 125I-ICAM-1 binding); format: cell-based, mouse; conditions: 1 μM CCL21 2 min
Experimental: Measurement of LFA-1 high affinity state. Induction of LFA-1 high affinity state by CCL21 was evaluated by measuring binding of soluble ^125I-ICAM-1. Briefly, ICAM-1 was iodinated with ^125NaI by the Chizzonite method. The binding assay was performed at 37° C. in a 500 μl Eppendorf tube. 40 μl of lymphocyte suspension (5×10^7/ml in PBS containing 1 mg/ml BSA, 2 mM MgCl2, 1 mM CaCl2, 1 mM D-glucose, pH 7.2) were directly layered on […] oil cushion of 2/1 dibutyl/dioctyl phthalates. Lymphocytes were stimulated with 10 μl of PBS containing chemokine (6 μM) and ^125I-ICAM-1 (5×10^5 CPM corresponding approximately to 2 μg of ^125I-ICAM-1). The binding reaction was stopped by rapid centrifugation in microfuge. Radioactivity bound to lymphocytes was counted with a gamma counter.

[3] = tested on: lymphocyte rolling and arrest on PP-HEV; assay: Intravital video microscopy of lymphocyte-high endothelial venule interaction in Peyer's patches; format: in vivo, mouse
Experimental: Intravital video microscopy analysis of lymphocyte-high endothelial venule interaction in Peyer's patches. Lymphocytes (5×10^6/ml in DMEM without sodium bicarbonate supplemented with 20 mM Hepes, 5% FCS, pH7.1) were labeled with either CMFDA or CMTMR for 30 min at 37° C. 30×10^6 labeled cells were injected iv. In situ videomicroscopic analyses were carried out in high endothelial venules (HEV) in the secondary lymphoid organ Peyer's patch (PP) as previously described. Cell behavior was analyzed over a period of 20-30 min starting at 2 minutes after iv injection. Interactions of ≧1 s were considered significant and were scored. Cells were considered to be interacting whether they rolled, arrested or both. Lymphocytes that remained firmly adherent on venular wall for ≧10 s were considered arrested.

[4] = tested on: LFA-1 lateral mobility; assay: LFA-1 distribution on plasma membrane (confocal microscopy); format: cell-based, mouse; conditions: 1 μM CCL21 2 min
Experimental: Evaluation of LFA-1 distribution on plasma membrane. Analysis and quantification of chemokine-induced LFA-1 surface distribution was determined by confocal microscopy, following the same procedure previously described. Briefly, lymphocytes were stimulated in suspension under stirring and then immediately fixed in 1% ice-cold paraformaldehyde in PBS, pH 7.4, for 10 min. Cell were washed and incubated with 10 μg/ml of TIB213 rat anti-mouse LFA-1 (ATCC) for 30 min on ice, washed 3 times and then incubated 30 min with Texas Red-conjugated goat anti-rat secondary antibody. The washed cells adhered for 30 min at 4° C. on 0.1% poly-L-lysine coated round 13 mm glass coverslips and were analyzed with a Carl Zeiss LSM 510 confocal imaging system, with a 63×C-Apochromat objective (NA 1.2). Definition and quantitative analysis of “disperse” and “clustered” morphologies of LFA-1 distribution was as previously described.

[5] = tested on: autoreactive, encephalitogenic T lymphocytes in inflamed brain microvessels; assay: Intravital microscopy of Ag-stimulated lymphocyte recruitment in inflamed brain microvessels; format: in vivo; conditions: mouse model simulating human Multiple Sclerosis
Experimental: The RhoA derived peptides described in Example 1 were tested for their ability to inhibit Ag-stimulated lymphocyte (autoreactive, encephalitogenic T lymphocytes) recruitment in inflamed brain by looking in vivo cell behavior with intravital microscopy, as described in Example 1. This in vivo model simulates, in mouse, human Multiple Sclerosis.

[6] = tested on: ζ PKC translocation to the plasma membrane; assay: ζ PKC intracellular distribution (sucrose gradient, immunoblot); format: cell-based; conditions: CCL21 30 seconds; for ζ PKC translocation to the plasma membrane induced by CCL21: lymphocytes, 30 min pretreatment
Experimental: ζ PKC intracellular distribution. The assay was performed as previously described. Briefly, lymphocytes were stimulated under stirring with agonists at 37° C. Stimulation was stopped by diluting the cells in a 10 times larger volume of ice-cold PBS. Cells, resuspended in 1 ml of ice-cold PBS containing 8% sucrose, containing the Complete™ protease inhibitor cocktail from Roche, were sonicated and the homogenates were centrifuged at 800×g/10 min to remove nuclei and unbroken cells. The postnuclear supernatant was loaded on discontinuous sucrose gradient (50% sucrose, 30% sucrose) and centrifuged for 120 min. at 100,000×g. The light membrane fraction (plasma membrane) was collected in the 30% layer. Following SDS-PAGE on 10% acrylamide, proteins were electroblotted on nitrocellulose filters, probed with rabbit polyclonal antibodies anti ζ PKC (Santa Cruz Biotechnology), followed by goat polyclonal anti-rabbit HRP conjugated (Sigma) and developed using ECL (Amersham).

[7] = molecular target: T1, RhoA binding to Citron-RBD (Homo sapiens, UniProt O14578); assay: Affinity-precipitation (pull-down) of GTP-Val14-RhoA with Citron GST-RBD; conditions: 20 μg of domain, anti-RhoA immunoblot
T1 sequence (O14578 1091-1302 limits assumed): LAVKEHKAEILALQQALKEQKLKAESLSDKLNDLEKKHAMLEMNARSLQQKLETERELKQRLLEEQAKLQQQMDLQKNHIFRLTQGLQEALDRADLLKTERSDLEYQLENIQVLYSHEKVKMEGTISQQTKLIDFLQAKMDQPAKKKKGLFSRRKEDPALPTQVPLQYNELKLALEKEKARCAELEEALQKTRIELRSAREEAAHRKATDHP
Experimental: (§1) Specificity of RhoA fusion domains and measurement of RhoA activation. The specificity of P1-RhoA fusion domains was evaluated by affinity-precipitation assay using the rho-binding domain (RBD) from Citron, Rhotekin and ROCK. Recombinant Val14-RhoA was loaded with 1 mM GTP at 37° C. for 90 min. 10 μg of Citron, Rhotekin or ROCK GST-RBD conjugated with glutathione beads were mixed with 5 μg of GTP-Val14-RhoA in […] of 50 mM Tris-HCl (pH 7.4), 5 mM MgCl2, 0.5 mM GTP, 2 mg/ml BSA (binding buffer). Binding was for 60 min. at 15° C. The beads were washed twice with binding buffer and subjected to SDS-polyacrylamide gel electrophoresis on a 12% gel. RhoA background binding to glutathione beads was negligible. In case of experiments in presence of P1-RhoA fusion domains, the domains were previously dissolved in binding buffer at 1 mg/ml.

[8] = tested on: ζ PKC; assay: Measurement of ζ PKC kinase activity; format: cell-based; conditions: 150 nM Wortmannin or 30 μM LY294002, 30 min, lymphocytes
Experimental: Measurement of ζ PKC kinase activity. The assay was performed as previously described. Briefly, lymphocytes were stimulated under stirring with agonists at 37° C. Stimulation was stopped with lysis buffer containing 50 mM Tris-HCl, pH 7.5, 1% Triton X-100, 0.01% SDS, 150 mM NaCl, 50 mM NaF, 10 mM sodium pyrophosphate, 1 μM phenylarsine oxide, containing the Complete™ protease inhibitor cocktail from Roche. After 30 min. on ice, lysates were centrifuged at 16,000 g for 1 min. to remove cell debris. Rabbit polyclonal anti ζ PKC (1 μg) or control rabbit serum was added to equal amount of cell lysates, followed by immunoprecipitation with trisacryl protein A. Equal amounts of ζ PKC were immunoprecipitated as confirmed by Western blot analysis. After four washing, immunoprecipitates were subjected to the kinase reaction for 30 min. at 30° C. in 50 μl of kinase buffer containing 0.5 mM EGTA, 10 mM MgC2, 20 mM HEPES, pH 7.4, 50 μM ATP, 5 μCi [γ-^32P]ATP and 2 μg myelin basic protein (MBP) as a substrate. The reaction was stopped by addition of 5% TCA and the reaction mixture was filtered through phosphocellulose paper. After four rinses with 1% phosphoric acid radioactivity on the filter was determined at a scintillation counter.

[9] = molecular target: T2, RhoA binding to Rhotekin-RBD (Homo sapiens, UniProt Q9BST9); assay: Affinity-precipitation (pull-down) of GTP-Val14-RhoA with Rhotekin GST-RBD; conditions: 20 μg of domain, anti-RhoA immunoblot
T2 sequence (Q9BST9 17-98 limits assumed): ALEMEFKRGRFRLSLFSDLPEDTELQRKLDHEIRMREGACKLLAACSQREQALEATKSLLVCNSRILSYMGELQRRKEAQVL
Experimental: as §1

[10] = tested on: Swiss 3T3 mouse fibroblasts; assay: LPA-induced actin stress fibers and membrane ruffling in fibroblasts; format: cell-based; conditions: 4 hours at 37° C. with peptide, then 10 min 25 ng/ml LPA
Experimental: Evaluation of actin stress fibers content. Swiss 3T3 mouse fibroblasts were maintained in DMEM containing 10% FCS for 6 days and then starved for 12 hours. Actin stress fibers content was evaluated in permeabilized cells with TRITC-labeled phalloidin. Analysis was performed by using a Zeiss LSM confocal microscope.

[11] = pretreated lymphocytes injected iv

C[C@@H](N)[C@H]1CC[C@H](C(=O)Nc2ccncc2)CC1 [Y27632, reference compound]
rapid adhesion induced by CCL21 on high density of ICAM-1 [1]: did not inhibit | rapid adhesion induced by CCL21 on low density of ICAM-1 [1]: did not inhibit | LFA-1 high affinity state triggering by CCL21 [2]: neither LFA-1 affinity triggering (FIG. 2H) nor induction of lateral mobility were blocked | rolling and arrest of circulating lymphocytes on PP-HEV [3, 11]: rolled and adhered normally | LFA-1 rapid lateral mobility (generation of LFA-1 clusters) induced by CCL21 [4]: neither LFA-1 affinity triggering (FIG. 2H) nor induction of lateral mobility were blocked

P1-RhoA 23-40: Penetratin-1 fused through a glycine to human RhoA aa 23-40 (IVFSKDQFPEVYVPTVFE, Domain I); aa 34
recruitment/arrest of Ag-stimulated lymphocytes in inflamed brain microvessels [5]: blocks recruitment | rapid adhesion induced by CCL21 on high density of ICAM-1 [1]: blocked adhesion triggering in a dose-dependent manner | rapid adhesion induced by CCL21 on low density of ICAM-1 [1]: prevented in a dose-dependent manner | percentage of cells displaying only rolling on PP-HEV ([3]; 50 μM pretreatment): increased | inhibition of stable arrest of lymphocytes on PP-HEV ([3]; 50 μM pretreatment, P<0.01): about 75% | lymphocyte tethering and interaction with vessels ([3]; pretreated lymphocytes injected iv, 50 μM): did not influence | blockade of ζ PKC translocation to the plasma membrane, densitometric analysis ([6]; 100 μM): about 82% | ζ PKC translocation to the plasma membrane induced by CCL21 [6]: blocked | binding of RhoA to Citron [7]: blocked | LFA-1 rapid lateral mobility (generation of LFA-1 clusters) induced by CCL21 [4]: prevented

COC[C@H]1OC(=O)c2coc3c2[C@@]1(C)C1=C(C3=O)[C@@H]2CCC(=O)[C@@]2(C)C[C@H]1OC(C)=O [Wortmannin]
prevention of the increase of ζ PKC kinase activity induced by CCL21 [8]: about 51%

P1-RhoA 75-92: Penetratin-1 fused through a glycine to human RhoA aa 75-92 (PDTDVILMCFSIDSPDSL, Domain II); aa 34
rapid adhesion induced by CCL21 on high density of ICAM-1 [1]: ineffective | rapid adhesion induced by CCL21 on low density of ICAM-1 [1]: unable to block | rolling and arrest of circulating lymphocytes on PP-HEV [3, 11]: did not affect | ζ PKC translocation to the plasma membrane induced by CCL21 [6]: did not prevent | LFA-1 rapid lateral mobility (generation of LFA-1 clusters) induced by CCL21 [4]: did not prevent | binding of RhoA to Rhotekin [9]: blocked

O=c1cc(N2CCOCC2)oc2c(-c3ccccc3)cccc12 [LY294002]
prevention of the increase of ζ PKC kinase activity induced by CCL21 [8]: ~62%

P1: Plasma membrane translocating sequence from third helix of Antennapedia homeodomain, RQIKIWFQNRRMKWKK; control peptide [reference compound]
rapid adhesion induced by CCL21 on high density of ICAM-1 [1]: ineffective | rapid adhesion induced by CCL21 on low density of ICAM-1 [1]: unable to block | LFA-1 high affinity state triggering by CCL21 [2]: did not prevent | rolling and arrest of circulating lymphocytes on PP-HEV [3, 11]: did not affect | ζ PKC translocation to the plasma membrane induced by CCL21 [6]: did not prevent | accumulation of actin stress fibers upon LPA triggering [10]: completely ineffective | LFA-1 rapid lateral mobility (generation of LFA-1 clusters) induced by CCL21 [4]: did not prevent
